Laboratory results reported in patent US7022719B2, “Preventing and reversing the formation of advance glycosylation endproducts” (Alteon, Inc., priority 1995, dated 2006).

Each compound was assayed on AGE-BSA crosslinked to collagen (assay: Cross-link Breaking Assay (sandwich enzyme immunoassay)). Details: not given.
Type: biochemical
Description: The present invention also involves a novel sandwich enzyme immunoassay used to ascertain the ability of test compounds to “break” or reverse already formed advanced glycosylation endproducts by detecting the breaking of AGE (Advanced glycosylation endproduct) moieties from AGE-crosslinked protein. This assay comprises: • a) incubation of AGE-modified bovine serum albumin (AGE BSA) on collagen-coated wells of microtiter plates for a period of 2–6 hours' at a temperature of 37° C.; • b) washing of the wells with PBS-Tween; • c) application of the test compounds to the washed wells of step b; • d) incubation of the test compounds applied to the washed wells for an additional 12–24 hours at a temperature of about 37° C.; and • e) detection of the AGE-breaking using an antibody raised against AGE-ribonuclease or cross-link breaking with an antibody against BSA.
In order to ascertain the ability of the compounds of the instant invention to “break” or reverse already formed advanced glycosylation endproducts, a novel sandwich enzyme immunoassay was developed which detects breaking of AGE (Advanced glycosylation endproduct) moieties from AGE-crosslinked protein. The assay utilizes collagen-coated 96 well microtiter plates that are obtained commercially. […] Following an incubation period of 16 hours (37° C.) cross-link-breaking is detected using an antibody raised against AGE-ribonuclease or with an antibody against BSA. […] Details of the assay are as follows:
Methods Preparation of Solutions and Buffers • 1. AGE-BSA stock solutions were prepared as follows. Sodium phosphate buffer (0.4 M) was prepared by dissolving 6 grams of monobasic sodium phosphate in 100 ml of distilled water, 7 grams of dibasic sodium phosphate (0.4 M) in 100 ml of distilled water and adjusting the pH of the dibasic solution to 7.4 with the monobasic solution. Sodium azide (0.02 grams) was added per 100 ml volume to inhibit bacterial growth. The BSA solution was prepared as follows: 400 mg of Type V BSA (bovine serum albumin) was added for each ml of sodium phosphate buffer (above). A 400 mM glucose solution was prepared by dissolving 7.2 grams of dextrose in 100 ml of sodium phosphate buffer (above). The BSA and glucose solutions were mixed 1:1 and incubated at 37° C. for 12 weeks. The pH of the incubation mixture was monitored weekly and adjusted to pH 7.4 if necessary. After 12 weeks, the AGE-BSA solution was dialyzed against PBS for 48 hours with four buffer changes, each at a 1:500 ratio of solution to dialysis buffer. Protein concentration was determined by the micro-Lowry method. The AGE-BSA stock solution was aliquoted and stored at −20° C. […] Working solutions for crosslinking and breaking studies were prepared as follows. Test compounds were dissolved in PBS and the pH was adjusted to pH 7.4 if necessary. AGE-BSA stock solution was diluted in PBS to measure maximum crosslinking and in the inhibitor solution for testing inhibitory activity of compounds. The concentration of AGE-BSA necessary to achieve the optimum sensitivity was determined by initial titration of each lot of AGE-BSA. • 3. Wash buffer (“PBS-Tween”) was, prepared as follows. PBS was prepared by dissolving the following salts in one liter of distilled water: NaCl, 8 grams; KC1, 0.2 gram, KH2PO4. […] Tween-20 was added to a final concentration of 0.05% (vol/vol). • 4. Substrates for detection of secondary antibody binding were prepared by diluting the HRP substrate buffer 1:10 in distilled water and mixing with ABTS chromogen 1:50 just prior to use. Assay Procedures • 1. Biocoat plates were blocked with 300 μl of “Superbloc”. Plates were blocked for one hour at room temperature and were washed with PBS-Tween three times with the Dynatech platewasher before addition of test reagents. • 2. Each experiment was set up in the following manner. The first three wells of the Biocoat plate were used for the reagent blank.

For “3-(2-(3′-methoxyphenyl]-2-oxoethyl)-thiazolium bromide”, the “Breaking Anti-AGE” value was 22%/44% (10).

With “3-(2-(3′-methoxyphenyl]-2-oxoethyl)-thiazolium bromide” the “Breaking Anti-BSA” value was 22%/44% (10).

Same assay, conditions: anti-AGE antibody; at 0.3 mM

Compared with C=Cc1sc[n+](CC(=O)c2cc(C(C)(C)C)c(O)c(C(C)(C)C)c2)c1C [3-(2-(3′,5′-tert-butyl-4′-hydroxyphenyl)-2-oxoethyl)-4-methyl-5-vinyl-thiazolium bromide], Cc1csc[n+]1CC(=O)c1cc(C(C)(C)C)c(O)c(C(C)(C)C)c1.[Br-] [3-[2-(3′,5′-di-tert-butyl-4′-hydroxyphenyl)-2-oxoethyl]-4-methyl-thiazolium bromide] is lower in “Breaking Anti-AGE” value: 32% for the first, 14% for the second.

Same assay, conditions: anti-AGE antibody; at 1 mM

Cc1cc(C)c(S(=O)(=O)[O-])c(C)c1.Nc1sc(-c2ccc3c(c2)OCCCO3)c[n+]1N [2,3-Diamino-5-(3′,4′-trimethylenedioxyphenyl) thiazolium mesitylene sulfonate] was tested, and the “Breaking Anti-AGE” value was 13%.

Same assay, conditions: anti-AGE antibody; at 10 mM

Compared with Cc1c(CCOCc2c(Cl)cccc2Cl)sc[n+]1N.Cc1cc(C)c(S(=O)(=O)[O-])c(C)c1 [3-amino-4-methyl-5-(2(2′,6′-dichlorobenzyloxy)ethyl]-thiazolium mesitylenesulfonate], Cc1c(CCO)sc[n+]1Cc1c(Cl)cccc1Cl.[Cl-] [3-(2′,6′-dichlorobenzyl)-4-methyl-5-(2′-15 hydroxyethyl)-thiazolium chloride] is lower in “Breaking Anti-AGE” value: 31% for the first, 6% for the second.

Going from Nc1ccc2c(c1)sc(N)[n+]2CC(=O)c1ccc(F)cc1.[Br-] [2,6-diamino-3 (2-(4′-fluorophenyl-2-oxoethyl]benzothiazolium bromide] to Nc1ccc2c(c1)sc(N)[n+]2CC(=O)c1ccc(Br)cc1.[Br-] [2,6-diamino-3 (2-(4′-bromophenyl)-2-oxoethyl] benzothiazolium bromide], the “Breaking Anti-AGE” value rises from 24% to 27%.

Going from COC(=O)c1ccc(NC(=O)C[n+]2csc(CCO)c2C)cc1O [3-(2-(4′-carbmethoxy-3′-hydroxyanilino)-2-oxoethyl]-4-methyl-5-(2′-hydroxyethyl)-thiazolium bromide] to COc1ccc(C(=O)C[n+]2c(N)sc3cc(N)ccc32)cc1.[Br-] [2,6-diamino-3 (2-(4′-methoxyphenyl)-2-oxoethyl]benzothiazolium bromide], the “Breaking Anti-AGE” value rises from 24% to 29%.

In the case of O=C(C[n+]1ccsc1)c1ccc2c(c1)OCCCO2.[Br-] [3-(2-(3′,4′-trimethylenedioxyphenyl)-2-oxoethyl]-thiazolium bromide], the “Breaking Anti-AGE” value is reported as 17%.

Same assay, conditions: anti-AGE antibody; at 30 mM

Going from Cc1csc[n+]1CC(=O)c1ccccc1.[Br-] [3-(2-phenyl-2-oxoethyl)-4-methylthiazolium bromide] to O=C(O)C[n+]1csc2ccccc21.[Br-] [3-(carboxymethyl)benzothiazolium bromide, 3-(carboxymethyl)-benzothiazolium bromide], the “Breaking Anti-AGE” value falls from 68% to 63.7%.

Same assay, conditions: anti-BSA antibody; at 0.3 mM

Compared with C=Cc1sc[n+](CC(=O)c2cc(C(C)(C)C)c(O)c(C(C)(C)C)c2)c1C [3-(2-(3′,5′-tert-butyl-4′-hydroxyphenyl)-2-oxoethyl)-4-methyl-5-vinyl-thiazolium bromide], Cc1csc[n+]1CC(=O)c1cc(C(C)(C)C)c(O)c(C(C)(C)C)c1.[Br-] [3-[2-(3′,5′-di-tert-butyl-4′-hydroxyphenyl)-2-oxoethyl]-4-methyl-thiazolium bromide] is lower in “Breaking Anti-BSA” value: 50% for the first, 2% for the second.

Same assay, conditions: anti-BSA antibody; at 1 mM

Cc1cc(C)c(S(=O)(=O)[O-])c(C)c1.Nc1sc(-c2ccc3c(c2)OCCCO3)c[n+]1N [2,3-Diamino-5-(3′,4′-trimethylenedioxyphenyl) thiazolium mesitylene sulfonate] was tested, and the “Breaking Anti-BSA” value was 42%.

Same assay, conditions: anti-BSA antibody; at 10 mM

First: Cc1c(CCOCc2c(Cl)cccc2Cl)sc[n+]1N.Cc1cc(C)c(S(=O)(=O)[O-])c(C)c1 [3-amino-4-methyl-5-(2(2′,6′-dichlorobenzyloxy)ethyl]-thiazolium mesitylenesulfonate]
Second: Cc1c(CCO)sc[n+]1Cc1c(Cl)cccc1Cl.[Cl-] [3-(2′,6′-dichlorobenzyl)-4-methyl-5-(2′-15 hydroxyethyl)-thiazolium chloride]
The “Breaking Anti-BSA” value of the first is higher: 54% for the first, 27% for the second.

Compared with Nc1ccc2c(c1)sc(N)[n+]2CC(=O)c1ccc(F)cc1.[Br-] [2,6-diamino-3 (2-(4′-fluorophenyl-2-oxoethyl]benzothiazolium bromide], Nc1ccc2c(c1)sc(N)[n+]2CC(=O)c1ccc(Br)cc1.[Br-] [2,6-diamino-3 (2-(4′-bromophenyl)-2-oxoethyl] benzothiazolium bromide] is higher in “Breaking Anti-BSA” value: 40% for the first, 44% for the second.

Going from COC(=O)c1ccc(NC(=O)C[n+]2csc(CCO)c2C)cc1O [3-(2-(4′-carbmethoxy-3′-hydroxyanilino)-2-oxoethyl]-4-methyl-5-(2′-hydroxyethyl)-thiazolium bromide] to COc1ccc(C(=O)C[n+]2c(N)sc3cc(N)ccc32)cc1.[Br-] [2,6-diamino-3 (2-(4′-methoxyphenyl)-2-oxoethyl]benzothiazolium bromide], the “Breaking Anti-BSA” value rises from 18% to 35%.

For O=C(C[n+]1ccsc1)c1ccc2c(c1)OCCCO2.[Br-] [3-(2-(3′,4′-trimethylenedioxyphenyl)-2-oxoethyl]-thiazolium bromide], the “Breaking Anti-BSA” value was 18%.

Same assay, conditions: anti-BSA antibody; at 30 mM

Compared with Cc1csc[n+]1CC(=O)c1ccccc1.[Br-] [3-(2-phenyl-2-oxoethyl)-4-methylthiazolium bromide], O=C(O)C[n+]1csc2ccccc21.[Br-] [3-(carboxymethyl)benzothiazolium bromide, 3-(carboxymethyl)-benzothiazolium bromide] is lower in “Breaking Anti-BSA” value: 66% for the first, 17.9% for the second.

Same assay, conditions: detection with anti-AGE antibody; read-out: IC50 (mM) Anti-AGE

For Cc1csc[n+]1CC(=O)c1ccccc1.[Br-] [3-(2-phenyl-2-oxoethyl)-4-methylthiazolium bromide], the IC50 was 0.23 mM.

Same assay, conditions: detection with anti-BSA antibody; read-out: IC50 (mM) Anti-BSA

Cc1csc[n+]1CC(=O)c1ccccc1.[Br-] [3-(2-phenyl-2-oxoethyl)-4-methylthiazolium bromide] showed an IC50 of 0.3 mM.

Each compound was assayed on cross-linking of glycated bovine serum albumin (AGE-BSA) to rat tail tendon collagen (assay: Cross-linking Inhibition Assay). Details: 3 mM.
Description: The following method was used to evaluate the ability of the compounds of the present invention to inhibit the cross-linking of glycated bovine serum albumin (AGE-BSA) to the rat tail tendon collagen-coated 96-well plate.
The blocking solution was removed from the wells by, washing the plate twice with PBS-'Tween 20 solution (0.05% Tween 20) using a NUNq-multiprobe or Dynatech ELISA-plate washer. Cross-linking of AGE-BSA (1 to 10 mg per well depending on the batch of AGE-BSA) to rat tail tendon collagen coated plate was performed with and without the testing ‘compound dissolved in PBS buffer at pH 7.4 at the desired concentrations by the, addition of 50 μl each of the AGE-BSA diluted in PBS or in the solution of test compound at 37° C. for 4 hours. Unbrowned BSA in PBS buffer with or without testing compound were added to the separate wells as the blanks. The un-cross-linked AGE-BSA was then removed by washing the wells three times with PBS-Tween buffer. The amount of AGE-BSA cross-linked to the tail tendon collagen-coated plate was then quantitated using a polyclonal antibody raised against AGE-RNase. After a one-hour incubation period, AGE antibody was removed by washing 4 times with PBS-Tween.
The bound AGE antibody was then detected with the addition of horseradish peroxidase-conjugated secondary antibody—goat anti-rabbit immunoglobulin and incubation for 30 minutes. […] The reaction was allowed for an additional 15 minutes and the absorbance was read at 410 nm in a Dynatech plate reader.

Cc1c(CCOCc2c(Cl)cccc2Cl)sc[n+]1N.Cc1cc(C)c(S(=O)(=O)[O-])c(C)c1 [3-amino-4-methyl-5-(2(2′,6′-dichlorobenzyloxy)ethyl]-thiazolium mesitylenesulfonate] was tested, and the “Relative Cross-link Inhibition” value was 26.5% (3 mm).

Same assay, conditions: inhibition of AGE-BSA cross-linking to collagen-coated plate

First: Cc1csc[n+]1CC(=O)c1ccccc1.[Br-] [3-(2-phenyl-2-oxoethyl)-4-methylthiazolium bromide]
Second: COC(=O)c1ccc(NC(=O)C[n+]2csc(CCO)c2C)cc1O [3-(2-(4′-carbmethoxy-3′-hydroxyanilino)-2-oxoethyl]-4-methyl-5-(2′-hydroxyethyl)-thiazolium bromide]
The IC50 of the first is 3.2-fold higher: 5600 µM for the first, 1760 µM for the second.
